Patent US20070077305A1, “Biocompatible polymeric matrix and preparation thereof” (priority 2005, published 2007)

Assay: In vitro diffusion test of film using Franz apparatus
Format: in vitro ADME
Conditions: after 24 h; from chitosan succinic acid film (DS about 60-80%); phosphate buffer pH 7.2, 32° C.
Protocol: The functionalized chitosan polymeric matrix was synthesized as previously described with a degree of substitution of about 60-80%. 500 mg of caffeine was added in 100 mL functionalized chitosan polymeric matrix solution (2.5%) and stirred during […]. Films were produce by applying 20 mL of the solution evenly onto Petri dishes and dried at room temperature for 24-48 h.
The film produced was subjected to an in vitro diffusion test using Franz apparatus, with an exposed surface area of 3.9 cm^2. Polydimethylsiloxan (Silastic®) membranes have been used as barrier and the receptor compartment (dissolution phase) was 1 L of 50 mM phosphate buffer (pH 7.2) at 32° C. At predetermined time intervals, the samples (5 mL aliquots) were analyzed at 272 nm for the determination of caffeine permeation.

SMILES: Cn1c(=O)c2c(ncn2C)n(C)c1=O [caffeine]
- amount of caffeine in the receptor compartment: 405 μg/cm^2
